The nature of series [1]: Binding in plasma from human (equilibrium dialysis). The format is in vitro ADME. The following applies: fraction unbound. How it is done:
Binding in plasma from rat and human.
Determination of compounds’ fraction unbound (f u) in plasma from rat and human was conducted in vitro via equilibrium dialysis using HTDialysis membrane plates. Dialysis membranes (four paired strips per HTD assay) were hydrated as described by the manufacturer and inserted into the HTD plate, which was assembled and prepared for sample addition by the dispensing of blank buffer (DPBS, 100 µL/well) into the ‘top half’ of each membrane-split well. Each compound was diluted into plasma from each species (5 µM final concentration), which was aliquoted in triplicate to the ‘bottom half’ of the prepared HTD plate wells. The HTD plate was sealed and incubated for 6 hours at 37 °C. Following incubation, each well (both top and bottom halves) were transferred (20 µL) to the corresponding wells of a 96-shallow-well (V-bottom) plate. The daughter plates were then matrix-matched (buffer side wells received equal volume of plasma, and plasma side wells received equal volume of buffer), and extraction solution (120 µL; acetonitrile containing 50 nM carbamazepine as IS) was added to all wells of both daughter plates to precipitate protein and extract test article. The plates were then sealed and centrifuged (3500 rcf) for 10 minutes at ambient temperature. Supernatant (60 µL) from each well of the daughter plates was then transferred to the corresponding wells of new daughter plates (96-shallow-well, V bottom) containing water (Milli-Q, 60 µL/well), and the plates were sealed in preparation for LC-MS/MS analysis (see below). fu was calculated as (analyte to IS MS peak area ratio from Trans-buffer side) / (analyte to IS MS peak area ratio from Cis-plasma side). Mean values for each species were calculated from 3 replicates. […]
Mean values for each species were calculated from 3 replicates.
In general terms: Equilibrium dialysis compares concentrations on both sides of a semipermeable membrane.

Series [2] concerns the target T1, CYP1A2 (Homo sapiens, UniProt P05177).
T1 construct: from tissue; host or cells: human liver microsomes
T1 sequence (P05177 1-516): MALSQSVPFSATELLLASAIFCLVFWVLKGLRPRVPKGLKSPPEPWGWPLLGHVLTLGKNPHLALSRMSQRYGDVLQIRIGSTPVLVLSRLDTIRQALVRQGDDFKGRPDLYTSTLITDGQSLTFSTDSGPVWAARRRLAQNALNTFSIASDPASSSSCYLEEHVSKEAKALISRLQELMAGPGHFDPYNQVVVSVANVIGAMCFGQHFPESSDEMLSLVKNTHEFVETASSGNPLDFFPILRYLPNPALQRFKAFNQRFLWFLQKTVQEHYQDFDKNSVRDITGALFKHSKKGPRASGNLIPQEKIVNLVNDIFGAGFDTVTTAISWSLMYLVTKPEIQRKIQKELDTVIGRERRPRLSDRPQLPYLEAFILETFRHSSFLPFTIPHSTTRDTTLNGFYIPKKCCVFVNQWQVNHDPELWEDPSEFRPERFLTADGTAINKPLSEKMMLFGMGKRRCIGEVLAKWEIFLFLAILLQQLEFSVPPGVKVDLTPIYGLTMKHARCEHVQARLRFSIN
Description: Cytochrome P450 inhibition using human liver microsomes, CYP1A2. Particulars: read-out: CYP 450 IC50, 1A2. The class given is in vitro ADME. The procedure: Cytochrome P450 inhibition using Liver Microsomes.
The ability of compounds to inhibit cytochrome P450s (CYPs) was tested using human liver microsomes and a cocktail of substrates specific for CYP1A2, 2C9, 2D6 and 3A4. Compounds were incubated at 37C in presence of human liver microsomes (0.1 mg/ml) at 30, 10, 3, 1, 0.3 and 0.1 µM. A cocktail of substrate was also added for each CYP tested: phenacetin (10 µM, CYP1A2), diclofenac (5 µM, CYP2C9), dextromethorphan (5 µM, CYP2D6) and midazolam (2 µM, CYP3A4). HLM were also incubated with the control inhibitor miconazole at 3, 1, 0.3, 0.1, 0.03 and 0.01 µM. […]
The concentrations of CYP-specific metabolites generated at the end of the reaction were quantified by mass spectrometry using standard curves for each metabolite: acetaminophen (CYP1A2), 4-hydroxydiclofenac (CYP2C9), dextrophan (CYP2D6) and 1-hydroxymidazolam (CYP3A4). A concentration response curve for each metabolite was generated and IC50s were calculated using Prism. The LC-MS/MS transitions for metabolite quantifications are as follows. […]
Prepared samples were injected (10 µL each) onto an AB Sciex Triple Quad 4500 mass spectrometer system with an Agilent 1260 Infinity II pump and autosampler. […] Quantitation of compounds was performed via AB Sciex Multiquant software using the raw analyte:IS peak area ratios. […]
For orientation: Microsomes from liver hold many membrane-bound enzymes, among them those of drug oxidation.

SMILES strings stand for the structures.

In general, IC50 refers to the concentration at which inhibition is half-maximal. For `Cc1csc(NC(=O)c2cc(O[C@@H]3CCOC3)c3sccc3n2)n1` [19aA], the “human f u,plasma” value in series [1] came to 0.020. Further, the 50% inhibitory concentration (IC50) in series [2] was 1.2 µM.

`Cc1csc(NC(=O)c2cc(O[C@@H]3CCOC3)cc(F)c2F)n1` [27cA]: in series [1], the “human f u,plasma” value amounted to 0.069. In addition, the IC50 in series [2] amounted to 1.3 µM.
